These results are taken from ChEMBL document CHEMBL3091359, “Potent oxazolidinone antibacterials with heteroaromatic C-ring substructure” (ACS Med Chem Lett, 2013).

The target in one data set is Cytochrome P450 2D6 (Homo sapiens, UniProt P10635). Kind of data set: Inhibition of human CYP2D6 assessed as dextromethorphan O-demethylation after 20 mins by LC-MS/MS analysis. Type of data set: ADME.
Data set [1] in a line: Cmax in ICR mouse at 67.7 mg/kg, po by LC-MS/MS analysis. Type of data set: ADME, organism-based. The arrangement: dose 67.7 mg/kg, route oral. The note with it: in vivo.
For another data set, the target named is Cytochrome P450 2C9 (Homo sapiens, UniProt P11712). Briefly: Inhibition of human CYP2C9 assessed as tolbutamide hydroxylation after 20 mins by LC-MS/MS analysis. Format: ADME.
Chain of Cytochrome P450 2C9 (P11712 whole entry): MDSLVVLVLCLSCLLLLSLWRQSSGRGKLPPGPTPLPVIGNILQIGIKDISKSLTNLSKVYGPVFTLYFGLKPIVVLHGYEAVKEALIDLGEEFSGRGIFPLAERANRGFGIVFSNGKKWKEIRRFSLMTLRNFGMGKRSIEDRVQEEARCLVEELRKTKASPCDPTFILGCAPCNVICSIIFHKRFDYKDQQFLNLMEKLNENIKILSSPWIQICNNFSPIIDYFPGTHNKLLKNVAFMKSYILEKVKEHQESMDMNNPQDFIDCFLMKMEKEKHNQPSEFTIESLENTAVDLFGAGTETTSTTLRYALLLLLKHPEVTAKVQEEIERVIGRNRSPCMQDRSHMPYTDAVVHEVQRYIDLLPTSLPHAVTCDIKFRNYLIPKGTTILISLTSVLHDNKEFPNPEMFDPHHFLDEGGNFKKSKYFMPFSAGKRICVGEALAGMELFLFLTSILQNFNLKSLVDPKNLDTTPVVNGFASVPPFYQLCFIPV
The target in a further data set is Cytochrome P450 3A4 (Homo sapiens, UniProt P08684). Briefly: Inhibition of human CYP3A4 assessed as terfenadine hydroxylation after 20 mins by LC-MS/MS analysis. Format: ADME.
Chain of Cytochrome P450 3A4 (P08684 whole entry): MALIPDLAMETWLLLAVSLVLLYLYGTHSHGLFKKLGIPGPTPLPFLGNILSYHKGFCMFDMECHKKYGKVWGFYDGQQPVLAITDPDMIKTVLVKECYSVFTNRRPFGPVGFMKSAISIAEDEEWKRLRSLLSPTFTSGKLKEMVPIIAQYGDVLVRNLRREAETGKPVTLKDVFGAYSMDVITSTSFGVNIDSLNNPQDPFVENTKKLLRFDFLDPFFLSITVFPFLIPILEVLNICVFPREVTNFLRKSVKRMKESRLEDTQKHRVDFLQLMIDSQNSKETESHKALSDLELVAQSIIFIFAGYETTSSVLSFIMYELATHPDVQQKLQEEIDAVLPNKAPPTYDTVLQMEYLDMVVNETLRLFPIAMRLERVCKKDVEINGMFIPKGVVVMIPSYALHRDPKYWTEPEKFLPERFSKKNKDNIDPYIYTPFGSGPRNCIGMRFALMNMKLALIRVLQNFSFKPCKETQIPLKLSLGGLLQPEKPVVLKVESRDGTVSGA
The test system of another data set is Moraxella catarrhalis. Briefly: Antibacterial activity against Moraxella catarrhalis SR26840 clinical isolate assessed as […] by CLSI broth microdilution method. Format: functional.
Data set [2] can be described thus: AUC (infinity) in ICR mouse at 67.7 mg/kg, po by LC-MS/MS analysis. Type of data set: ADME, organism-based. Details: time infinity, dose 67.7 mg/kg, route oral. The following applies: plasma.
The subject of the next data set is Enterococcus faecium. Kind of data set: Antibacterial activity against Enterococcus faecium SR7940 clinical isolate assessed as […] by CLSI broth microdilution method. Type of data set: functional.
The subject of data set [3] is Staphylococcus aureus. Kind of data set: Antibacterial activity against methicillin-resistant Staphylococcus aureus SR3637 clinical isolate infected in po dosed JCL/ICR systemic infection model assessed as mortality administered after 1 hr of infection measured for 7 days. Format: functional.
In a further data set the target is T1, Cytochrome P450 1A2 (Homo sapiens, UniProt P05177).
T1 sequence (P05177 whole entry): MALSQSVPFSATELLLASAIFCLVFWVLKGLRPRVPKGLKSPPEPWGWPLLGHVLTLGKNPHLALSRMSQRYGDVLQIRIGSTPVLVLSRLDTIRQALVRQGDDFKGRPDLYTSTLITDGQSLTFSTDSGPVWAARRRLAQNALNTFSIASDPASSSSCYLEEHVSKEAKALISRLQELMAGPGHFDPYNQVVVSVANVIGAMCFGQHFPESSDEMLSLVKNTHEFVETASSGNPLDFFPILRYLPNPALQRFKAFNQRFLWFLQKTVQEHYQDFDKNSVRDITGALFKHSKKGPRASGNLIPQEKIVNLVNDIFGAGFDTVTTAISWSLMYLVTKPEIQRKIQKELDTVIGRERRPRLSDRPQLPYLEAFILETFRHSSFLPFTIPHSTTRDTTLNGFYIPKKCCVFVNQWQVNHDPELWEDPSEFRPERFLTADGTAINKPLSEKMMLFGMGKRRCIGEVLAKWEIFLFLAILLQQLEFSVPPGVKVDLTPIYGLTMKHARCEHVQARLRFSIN
Kind of data set: Inhibition of human CYP1A2 assessed as ethoxyresorufin O-deethylation after 20 mins by fluorescence plate reader. Format: ADME.

Data set [4] is described as follows: Tmax in ICR mouse at 67.7 mg/kg, po by LC-MS/MS analysis. Format: ADME, organism-based. The arrangement: dose 67.7 mg/kg, route oral. The following applies: in vivo.
The test system of another data set is Haemophilus influenzae. Briefly: Antibacterial activity against Haemophilus influenzae SR27914 clinical isolate assessed as […] by CLSI broth microdilution method. Format: functional.
Data set [5] deals with Staphylococcus aureus. Kind of data set: Antibacterial activity against linezolid-resistant Staphylococcus aureus NRS271 clinical isolate harboring G2576T mutation in peptidyl transferase center domain V of 23S rRNA gene assessed as […] by CLSI broth microdilution method. Format: functional.
For a further data set, the target named is T2, MAO-A (Rattus norvegicus, UniProt P21396).
T2 sequence (P21396 whole entry): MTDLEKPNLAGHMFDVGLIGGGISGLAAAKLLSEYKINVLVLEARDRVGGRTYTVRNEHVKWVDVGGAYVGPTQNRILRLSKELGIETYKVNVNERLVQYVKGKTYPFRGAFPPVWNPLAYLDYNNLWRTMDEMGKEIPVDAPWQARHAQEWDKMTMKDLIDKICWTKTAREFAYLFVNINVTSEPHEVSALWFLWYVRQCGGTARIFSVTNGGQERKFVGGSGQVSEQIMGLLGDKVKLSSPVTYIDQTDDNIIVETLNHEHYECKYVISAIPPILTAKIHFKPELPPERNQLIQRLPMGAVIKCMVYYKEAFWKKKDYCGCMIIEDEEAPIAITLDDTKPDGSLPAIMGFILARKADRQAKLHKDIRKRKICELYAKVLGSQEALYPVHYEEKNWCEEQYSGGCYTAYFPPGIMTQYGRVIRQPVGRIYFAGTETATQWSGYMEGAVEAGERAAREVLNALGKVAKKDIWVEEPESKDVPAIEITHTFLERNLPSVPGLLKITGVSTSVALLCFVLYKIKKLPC
Kind of data set: Inhibition of rat forebrain MAO-A using [14C]5-HT as substrate at 30 uM preincubated for 20 mins followed by substrate addition measured after 5 mins by liquid scintillation counting analysis. The following applies: probe [14C]5-HT.

Data set [6] can be described thus: Cmax in ICR mouse at 5.56 mg/kg, po by LC-MS/MS analysis. Details: dose 5.56 mg/kg, route oral. Type of data set: ADME, organism-based. The following applies: in vivo.
Data set [7] concerns Staphylococcus aureus. Briefly: Potency index, ratio of linezolid ED50 to compound ED50 for methicillin-resistant Staphylococcus aureus SR3637 in po dosed JCL/ICR mouse systemic infection model. Format: functional.
The test system of another data set is Enterococcus faecalis. Briefly: Antibacterial activity against Enterococcus faecalis SR1004 clinical isolate assessed as […] by CLSI broth microdilution method. Format: functional.
In the next data set the target is T3, MAO-B (Rattus norvegicus, UniProt P19643).
T3 sequence (P19643 whole entry): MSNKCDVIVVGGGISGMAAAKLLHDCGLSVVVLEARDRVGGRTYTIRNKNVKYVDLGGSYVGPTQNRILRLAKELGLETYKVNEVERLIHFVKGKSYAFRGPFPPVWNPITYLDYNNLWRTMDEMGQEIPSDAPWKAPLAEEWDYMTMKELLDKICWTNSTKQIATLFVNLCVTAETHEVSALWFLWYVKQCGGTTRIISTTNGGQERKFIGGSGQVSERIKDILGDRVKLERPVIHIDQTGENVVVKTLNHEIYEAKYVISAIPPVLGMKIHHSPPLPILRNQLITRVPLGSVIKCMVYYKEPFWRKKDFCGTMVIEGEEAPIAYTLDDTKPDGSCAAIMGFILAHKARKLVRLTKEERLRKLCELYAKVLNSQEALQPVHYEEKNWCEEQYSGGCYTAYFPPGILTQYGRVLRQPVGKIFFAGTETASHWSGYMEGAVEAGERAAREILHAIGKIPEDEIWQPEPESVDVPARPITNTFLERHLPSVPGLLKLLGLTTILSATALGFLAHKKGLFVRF
Briefly: Inhibition of rat forebrain MAO-B using [14C]PEA as substrate at 30 uM preincubated for 20 mins followed by substrate addition measured after 10 mins by liquid scintillation counting analysis. The following applies: probe [14C]PEA.

The test system of data set [8] is Staphylococcus aureus. Briefly: Antibacterial activity against Staphylococcus aureus Smith clinical isolate assessed as […] by CLSI broth microdilution method. Type of data set: functional.
Data set [9] in a line: Tmax in ICR mouse at 5.56 mg/kg, po by LC-MS/MS analysis. Type of data set: ADME, organism-based. The arrangement: dose 5.56 mg/kg, route oral. The note with it: in vivo.
For data set [10], the system named is Staphylococcus aureus. Briefly: Ratio of linezolid MIC to compound MIC for Staphylococcus aureus SR20549 clinical isolate. Type of data set: functional.
Data set [11] in a line: AUC (infinity) in ICR mouse at 5.56 mg/kg, po by LC-MS/MS analysis. Format: ADME, organism-based. The arrangement: time infinity, dose 5.56 mg/kg, route oral. The following applies: plasma.
The subject of data set [12] is Streptococcus pneumoniae. Briefly: Antibacterial activity against penicillin-resistant Streptococcus pneumoniae SR11031 clinical isolate assessed as […] by CLSI broth microdilution method. Type of data set: functional.
Data set [13] relates to Staphylococcus aureus. Briefly: Antibacterial activity against Staphylococcus aureus SR20549 clinical isolate assessed as […] by CLSI broth microdilution method. Type of data set: functional.
Data set [14] has as its system Staphylococcus aureus. Briefly: Antibacterial activity against methicillin-resistant Staphylococcus aureus SR3637 clinical isolate assessed as […] by CLSI broth microdilution method. Format: functional.
In data set [15] the test system is Staphylococcus aureus. Briefly: Antibacterial activity against methicillin-resistant Staphylococcus aureus SR3637 clinical isolate infected in iv dosed JCL/ICR systemic infection model assessed as mortality administered after 1 hr of infection measured for 7 days. Type of data set: functional.
Data set [16] concerns Staphylococcus aureus. Kind of data set: Ratio of linezolid MIC to compound MIC for Staphylococcus aureus Smith clinical isolate. Type of data set: functional.
For data set [17], the system named is Streptococcus pneumoniae. Kind of data set: Antibacterial activity against Streptococcus pneumoniae SR26207 clinical isolate assessed as […] by CLSI broth microdilution method. Format: functional.

The structures appear in SMILES notation. In brackets after ≈: the same amount, converted by molar mass.

Chain of Cytochrome P450 2D6 (P10635 whole entry): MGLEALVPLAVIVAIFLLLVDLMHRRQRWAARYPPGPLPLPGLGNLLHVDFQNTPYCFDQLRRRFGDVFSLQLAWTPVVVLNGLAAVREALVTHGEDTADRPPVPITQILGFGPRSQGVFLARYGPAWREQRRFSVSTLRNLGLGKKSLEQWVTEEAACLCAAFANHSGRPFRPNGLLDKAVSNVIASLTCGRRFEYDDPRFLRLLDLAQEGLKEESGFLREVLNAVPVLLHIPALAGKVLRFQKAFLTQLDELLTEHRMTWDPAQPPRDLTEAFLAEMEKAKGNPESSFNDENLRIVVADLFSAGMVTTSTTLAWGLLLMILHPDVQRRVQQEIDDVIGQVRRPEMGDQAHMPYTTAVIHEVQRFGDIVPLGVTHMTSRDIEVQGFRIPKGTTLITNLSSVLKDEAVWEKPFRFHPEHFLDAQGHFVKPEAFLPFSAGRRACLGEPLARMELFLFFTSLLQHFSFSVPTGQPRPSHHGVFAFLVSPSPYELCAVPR

In the case of `CC(=O)NC[C@H]1CN(c2ccc(N3CCOCC3)c(F)c2)C(=O)O1` [LINEZOLID], the IC50 at Cytochrome P450 2D6, on Cytochrome P450 2C9, at Cytochrome P450 3A4 and at Cytochrome P450 1A2 was above 20 µM each time. For the same compound, the Cmax in data set [1] stood at 37000 ng/mL. Also, the MIC amounted to 8 µg/mL (≈ 23.7 µM) with Moraxella catarrhalis, 2 µg/mL (≈ 5.93 µM) in the data set with Enterococcus faecium, 16 µg/mL (≈ 47.4 µM) in the data set with Haemophilus influenzae and 32 µg/mL (≈ 94.9 µM) in the data set with Staphylococcus aureus [5]. In [2], this compound had an AUC(0-inf) of 162000 ng·h/mL. Moreover, in the data set on Staphylococcus aureus [3], the median effective dose (ED50) came out at 1.98 mg/kg. Moreover, the Tmax in [4] stood at 30 min.
As for `CC(=O)NC[C@H]1CN(c2ccc(-c3ccn4ncnc4c3)c(F)c2)C(=O)O1`, the inhibition at 5 min, 30 µM at MAO-A was determined as 55.9%. The highest level in data set [6] (Cmax) was 4780 ng/mL. In addition, the “Ratio ED50” value in the data set on Staphylococcus aureus [7] is recorded as 4. Also, the MIC is 0.25 µg/mL (≈ 0.677 µM) with Enterococcus faecalis; 0.5 µg/mL (≈ 1.35 µM) with Staphylococcus aureus [8]; 4 µg/mL (≈ 10.8 µM) in the data set with Moraxella catarrhalis; 0.25 µg/mL (≈ 0.677 µM) with Enterococcus faecium; at most 0.063 µg/mL with Streptococcus pneumoniae [12]; 0.25 µg/mL (≈ 0.677 µM) with Staphylococcus aureus [13]. Further, the MIC with Staphylococcus aureus [14] was 0.25 µg/mL (≈ 0.677 µM); in the data set on Haemophilus influenzae, 4 µg/mL (≈ 10.8 µM); in the data set with Staphylococcus aureus [5], 4 µg/mL (≈ 10.8 µM); in the data set on Streptococcus pneumoniae [17], at most 0.063 µg/mL. Further, the half-maximal inhibitory concentration (IC50) at Cytochrome P450 2D6, on Cytochrome P450 2C9, at Cytochrome P450 3A4 and at Cytochrome P450 1A2 was above 20 µM throughout. This compound had an inhibition at 10 min, 30 µM on MAO-B of 78.2%. The Tmax in data set [9] amounted to 60 min. Besides, the Ratio worked out at 2 in the data set with Staphylococcus aureus [10] and 4 in the data set with Staphylococcus aureus [16]. Further, in data set [11], the total exposure AUC(0-inf) is 30900 ng·h/mL. Further, the results for the ED50 in the data set on Staphylococcus aureus [3] and in the data set with Staphylococcus aureus [15] were 0.55 mg/kg and 0.34 mg/kg, respectively.
